Key:
[1] = biological target: T1, human FAAH (Homo sapiens, UniProt O00519); assay: FAAH assay, human FAAH enzyme inactivation (kinact/Ki); type: biochemical; details: oleamide 50 μM, 30° C.; for kinact/KI: pH 7.4, in vitro, read-out: hFAAH kinact/Ki; for hFAAH kinact/Ki: in vitro, pH 7.4
T1 construct: made in house; host or cells: E. coli
T1 sequence (O00519 1-579): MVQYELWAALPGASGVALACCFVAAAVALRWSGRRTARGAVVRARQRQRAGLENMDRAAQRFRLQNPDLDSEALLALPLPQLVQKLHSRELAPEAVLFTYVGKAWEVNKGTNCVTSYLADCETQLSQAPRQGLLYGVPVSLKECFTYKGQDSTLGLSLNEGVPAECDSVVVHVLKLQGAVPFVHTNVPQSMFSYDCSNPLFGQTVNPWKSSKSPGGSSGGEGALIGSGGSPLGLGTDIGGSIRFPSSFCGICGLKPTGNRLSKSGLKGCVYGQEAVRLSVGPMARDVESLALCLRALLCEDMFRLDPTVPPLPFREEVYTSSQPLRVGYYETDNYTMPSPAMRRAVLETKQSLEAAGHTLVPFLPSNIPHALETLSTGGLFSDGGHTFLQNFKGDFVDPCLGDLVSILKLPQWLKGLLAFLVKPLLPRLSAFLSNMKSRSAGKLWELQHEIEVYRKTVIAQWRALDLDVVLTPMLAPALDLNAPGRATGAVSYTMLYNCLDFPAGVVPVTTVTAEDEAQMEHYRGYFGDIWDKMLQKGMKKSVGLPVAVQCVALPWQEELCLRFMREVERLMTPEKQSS
Experimental: (§1) The FAAH assay was carried out in 384-well clear polystyrene plates (Evergreen Scientific) in a total volume of 50 μl per well in a manner similar to that described by Mileni et al., Proc. Nat. Acad. Sci. 2008, 105, 12820-12824. All percents are by volume. Serial dilutions of compound were initially prepared in 100% DMSO, and then diluted two-fold into HPLC-grade H2O to give 50% DMSO. To each well, was placed the reaction mixture (40 μl) containing 1-4 nM FAAH, 50 mM NaPi, pH 7.4, 3 mM α-ketoglutarate, 0.15 mM NADH, 7.5 U/ml glutamate dehydrogenase, 2 mM ADP, 1 mM EDTA, and 0.1% Triton X-100 (The concentration shown for each component is the final concentration in the assay). To this mixture, was added 5 μl of a compound of Examples 1 to 101 at various concentrations in 50% DMSO (or 5 μl 50% DMSO for controls). This was immediately followed by the addition of 5 μl oleamide (500 μM) dissolved in 75% EtOH/25% DMSO and the reaction mixture was mixed for 1.5 min. The final concentrations of DMSO and EtOH in the assay were each 7.5%. The reactions were incubated at 30° C. and the absorbance at 340 nm was collected over a period of 90 min with readings taken in 30-second intervals using SpectraMax Plus^384 Microplate Spectrophotometer (Molecular Devices, Sunnyvale, Calif.). The human FAAH and rat FAAH used in the assay was prepared as described in the patent application WO 2006/067613 using wild-type E. coli cells transformed in St. Louis, Mo., U.S.A. The purity of the enzyme was greater than 98% based on an analysis by SDS-polyacrylamide gel electrophoresis followed by Coomassie Blue staining.
(§2) Reaction progress curves were corrected for the non-enzymatic oxidation of NADH by subtraction of absorbancies at each time point obtained from control reactions containing no FAAH enzyme. The loss of enzyme activity as a function of time is well-described by the following mathematical equation (1) for a mono-exponential decay: […]
(§3) where At represents the absorbance at time t, A0 represents the absorbance at time zero, and C represents a constant. Observed rates of enzyme inactivation (kobs) were determined from the non-linear reaction progress curves by fitting the corrected absorbancies to an equation for a mono-exponential decay using the third-party Microsoft Excel plug-in, XLfit (IDBS Limited). Secondary plots of kobs vs. inhibitor concentration were prepared from kobs values obtained from progress curves. Second-order rates for enzyme inactivation, expressed as kinact/Ki (M^−1 s^−1), were calculated from the slopes from linear regression analysis of the secondary plot of kobs vs. inhibitor concentration as defined in following equation (2), where [I]<<Ki:
(§4) The concentration of substrate in the assay was equal to the Km for oleamide of 50 μM. Therefore, reported kinact/Ki values are obtained by multiplying resulting slopes by a factor of two (i.e. slope=kinact/(Ki*2)).
(§5) Table 1, below, lists human FAAH (hFAAH) and rat FAAH (rFAAH) enzyme inhibition values for Examples 1-101 as a ratio of kinact/Ki (M^−1 s^−1).

[2] = biological target: T2, rat FAAH (Rattus norvegicus, UniProt P97612); assay: FAAH assay, rat FAAH enzyme inactivation (kinact/Ki); type: biochemical; details: oleamide 50 μM, 30° C.; for kinact/KI: pH 7.4, in vitro, read-out: rFAAH kinact/Ki; for rFAAH kinact/Ki: in vitro, pH 7.4
T2 construct: made in house; host or cells: E. coli
T2 sequence (P97612 1-579): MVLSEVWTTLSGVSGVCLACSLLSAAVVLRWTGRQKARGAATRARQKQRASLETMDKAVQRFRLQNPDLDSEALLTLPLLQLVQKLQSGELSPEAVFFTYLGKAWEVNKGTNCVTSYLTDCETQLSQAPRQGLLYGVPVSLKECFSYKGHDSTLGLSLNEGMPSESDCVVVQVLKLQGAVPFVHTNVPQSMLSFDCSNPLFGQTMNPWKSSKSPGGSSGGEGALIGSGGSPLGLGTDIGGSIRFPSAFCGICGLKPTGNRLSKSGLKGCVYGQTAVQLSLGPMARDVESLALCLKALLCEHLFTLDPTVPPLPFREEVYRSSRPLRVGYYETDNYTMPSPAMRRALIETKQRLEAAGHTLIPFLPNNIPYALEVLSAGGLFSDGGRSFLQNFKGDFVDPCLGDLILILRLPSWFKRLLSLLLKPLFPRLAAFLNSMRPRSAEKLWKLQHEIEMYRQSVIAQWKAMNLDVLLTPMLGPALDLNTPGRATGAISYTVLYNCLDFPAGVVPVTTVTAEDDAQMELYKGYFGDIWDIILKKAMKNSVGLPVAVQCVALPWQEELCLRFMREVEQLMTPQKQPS
Experimental: as §1, §2, §3, §4, §5

| kinact/KI [1] [M⁻¹ s⁻¹] | kinact/KI [2] [M⁻¹ s⁻¹] | hFAAH kinact/Ki [1] [M⁻¹ s⁻¹] | rFAAH kinact/Ki [2] [M⁻¹ s⁻¹] | Compound |
| --- | --- | --- | --- | --- |
| 1580 | 3950 | – | – | Cc1noc(NC(=O)N2CCC3(CC2)CC(c2ccc(F)c(Cl)c2)CO3)c1C (racemic) [Example 28, (3RS)-3-(3-chloro-4-fluorophenyl)-N-(3,4-dimethylisoxazol-5-yl)-1-oxa-8-azaspiro[4.5]decane-8-carboxamide] |
| 2110 | 3230 | – | – | Cc1noc(NC(=O)N2CCC3(CC2)CC(c2ccc(OCc4cccc(C(F)(F)F)n4)cc2)CO3)c1C (racemic) [Example 29, (3RS)-N-(3,4-dimethylisoxazol-5-yl)-3-(4-{[6-(trifluoromethyl)pyridin-2-yl]methoxy}phenyl)-1-oxa-8-azaspiro[4.5]decane-8-carboxamide] |
| 7380 | 5800 | – | – | Cc1noc(NC(=O)N2CCC3(CC2)CC(c2ccc(OCc4ccc(F)c(F)c4)cc2)CO3)c1C (racemic) [Example 30, (3RS)-3-{4-[(3,4-difluorobenzyl)oxy]phenyl}-N-(3,4-dimethylisoxazol-5-yl)-1-oxa-8-azaspiro[4.5]decane-8-carboxamide] |
| 3580 | 3220 | – | – | Cc1noc(NC(=O)N2CCC3(CC2)CC(c2ccc(OCc4cc(F)ccc4F)cc2)CO3)c1C (racemic) [Example 31, (3RS)-3-{4-[(2,5-difluorobenzyl)oxy]phenyl}-N-(3,4-dimethylisoxazol-5-yl)-1-oxa-8-azaspiro[4.5]decane-8-carboxamide] |
| 4120 | 7580 | – | – | Cc1noc(NC(=O)N2CCC3(CC2)CC(c2ccc(OCc4ccc(C(F)(F)F)cn4)cc2)CO3)c1C (racemic) [Example 32, (3RS)-N-(3,4-dimethylisoxazol-5-yl)-3-(4-{[5-(trifluoromethyl)pyridin-2-yl]methoxy}phenyl)-1-oxa-8-azaspiro[4.5]decane-8-carboxamide] |
| 2020 | 1470 | – | – | Cc1noc(NC(=O)N2CCC3(CC2)CC(c2cccc(-c4ccc(F)c(F)c4)c2)CO3)c1C (racemic) [Example 53, (3RS)-3-(3′,4′-difluorobiphenyl-3-yl)-N-(3,4-dimethylisoxazol-5-yl)-1-oxa-8-azaspiro[4.5]decane-8-carboxamide] |
| 2040 | 1110 | – | – | Cc1noc(NC(=O)N2CCC3(CC2)CC(c2cccc(-c4ccc(F)cc4)c2)CO3)c1C (racemic) [Example 54, (3RS)-N-(3,4-dimethylisoxazol-5-yl)-3-(4′-fluorobiphenyl-3-yl)-1-oxa-8-azaspiro[4.5]decane-8-carboxamide] |
| 2070 | 1160 | – | – | Cc1noc(NC(=O)N2CCC3(CC2)CC(c2cccc(-c4ccc(Cl)cc4)c2)CO3)c1C (racemic) [Example 55, (3RS)-3-(4′-chlorobiphenyl-3-yl)-N-(3,4-dimethylisoxazol-5-yl)-1-oxa-8-azaspiro[4.5]decane-8-carboxamide] |
| 1880 | 1140 | – | – | Cc1noc(NC(=O)N2CCC3(CC2)CC(c2cccc(-c4ccc(OC(F)(F)F)cc4)c2)CO3)c1C (racemic) [Example 56, (3RS)-N-(3,4-dimethylisoxazol-5-yl)-3-[4′-(trifluoromethoxy)biphenyl-3-yl]-1-oxa-8-azaspiro[4.5]decane-8-carboxamide] |
| 1100 | 2630 | – | – | Cc1noc(NC(=O)N2CCC3(CC2)CC(c2cccc(C(F)(F)F)c2)CO3)c1C (racemic) [Example 65, (3RS)—N-(3,4-dimethylisoxazol-5-yl)-3-[3-(trifluoromethyl)phenyl]-1-oxa-8-azaspiro[4.5]decane-8-carboxamide] |
| 2610 | 1020 | – | – | Cc1noc(NC(=O)N2CCC3(CC2)CC(c2noc(-c4ccc(OC(F)(F)F)cc4)n2)CO3)c1C (racemic) [Example 71, (3RS)—N-(3,4-dimethylisoxazol-5-yl)-3-{5-[4-(trifluoromethoxy)phenyl]-1,2,4-oxadiazol-3-yl}-1-oxa-8-azaspiro[4.5]decane-8-carboxamide] |
| 2380 | 1140 | – | – | Cc1noc(NC(=O)N2CCC3(CC2)CC(c2noc(-c4ccc(C(F)(F)F)cc4)n2)CO3)c1C (racemic) [Example 74, (3RS)—N-(3,4-dimethylisoxazol-5-yl)-3-{5-[4-(trifluoromethyl)phenyl]-1,2,4-oxadiazol-3-yl}-1-oxa-8-azaspiro[4.5]decane-8-carboxamide] |
| 5240 | 3120 | – | – | Cn1nnnc1NC(=O)N1CCC2(CC1)CC(c1cccc(C(F)(F)F)c1)CO2 (racemic) [Example 92] |
| 871 | 1120 | – | – | Cc1noc(NC(=O)N2CCC3(CC2)CC(F)(c2cc(F)cc(Cl)c2)CO3)c1C (racemic) [Example 100, (3RS)-3-(3-chloro-5-fluorophenyl)-N-(3,4-dimethylisoxazol-5-yl)-3-fluoro-1-oxa-8-azaspiro[4.5]decane-8-carboxamide] |
| 1780 | 8330 | – | – | O=C(Nc1noc2ccccc12)N1CCC2(CC1)CC(c1cccc(Oc3ccc(Cl)cn3)c1)CO2 (racemic) [Example 101, (3RS)—N-1,2-benzisoxazol-3-yl-3-{3-[(5-chloropyridin-2-yl)oxy]phenyl}-1-oxa-8-azaspiro[4.5]decane-8-carboxamide] |
| – | – | 2050 | 2380 | Cc1noc(NC(=O)N2CCC3(CC2)CC(c2ccc(Cl)c(Cl)c2)CO3)c1C (single isomer, unassigned) [Example 38, 3-(3,4-dichlorophenyl)-N-(3,4-dimethylisoxazol-5-yl)-1-oxa-8-azaspiro[4.5]decane-8-carboxamide] |
| – | – | 2470 | 3740 | Cc1noc(NC(=O)N2CCC3(CC2)CC(c2cc(F)cc(Cl)c2)CO3)c1C (single isomer, unassigned) [Example 40, 3-(3-chloro-5-fluorophenyl)-N-(3,4-dimethylisoxazol-5-yl)-1-oxa-8-azaspiro[4.5]decane-8-carboxamide] |

Reference: patent US20110230493A1, “1-OXA-8-Azaspiro [4,5] Decabe-8-Carboxamide Compounds as FAAH Inhibitors” (Pfizer Inc., priority 2008, published 2011)
